Assay results from patent publication US9884063B2, “Amido-substituted azole compounds” (Bayer Pharma Aktiengesellschaft, priority 2014, dated 2018).

Columns and labels:
TNKS1 = target: T1, TNKS1 (Homo sapiens, UniProt O95271); assay: Modified TNKS1 Assay 2 (auto-parsylation, [3H]-NAD+ SPA); type: biochemical; conditions: 6 nM TNKS1, 96 well
T1 sequence (O95271 1-1327): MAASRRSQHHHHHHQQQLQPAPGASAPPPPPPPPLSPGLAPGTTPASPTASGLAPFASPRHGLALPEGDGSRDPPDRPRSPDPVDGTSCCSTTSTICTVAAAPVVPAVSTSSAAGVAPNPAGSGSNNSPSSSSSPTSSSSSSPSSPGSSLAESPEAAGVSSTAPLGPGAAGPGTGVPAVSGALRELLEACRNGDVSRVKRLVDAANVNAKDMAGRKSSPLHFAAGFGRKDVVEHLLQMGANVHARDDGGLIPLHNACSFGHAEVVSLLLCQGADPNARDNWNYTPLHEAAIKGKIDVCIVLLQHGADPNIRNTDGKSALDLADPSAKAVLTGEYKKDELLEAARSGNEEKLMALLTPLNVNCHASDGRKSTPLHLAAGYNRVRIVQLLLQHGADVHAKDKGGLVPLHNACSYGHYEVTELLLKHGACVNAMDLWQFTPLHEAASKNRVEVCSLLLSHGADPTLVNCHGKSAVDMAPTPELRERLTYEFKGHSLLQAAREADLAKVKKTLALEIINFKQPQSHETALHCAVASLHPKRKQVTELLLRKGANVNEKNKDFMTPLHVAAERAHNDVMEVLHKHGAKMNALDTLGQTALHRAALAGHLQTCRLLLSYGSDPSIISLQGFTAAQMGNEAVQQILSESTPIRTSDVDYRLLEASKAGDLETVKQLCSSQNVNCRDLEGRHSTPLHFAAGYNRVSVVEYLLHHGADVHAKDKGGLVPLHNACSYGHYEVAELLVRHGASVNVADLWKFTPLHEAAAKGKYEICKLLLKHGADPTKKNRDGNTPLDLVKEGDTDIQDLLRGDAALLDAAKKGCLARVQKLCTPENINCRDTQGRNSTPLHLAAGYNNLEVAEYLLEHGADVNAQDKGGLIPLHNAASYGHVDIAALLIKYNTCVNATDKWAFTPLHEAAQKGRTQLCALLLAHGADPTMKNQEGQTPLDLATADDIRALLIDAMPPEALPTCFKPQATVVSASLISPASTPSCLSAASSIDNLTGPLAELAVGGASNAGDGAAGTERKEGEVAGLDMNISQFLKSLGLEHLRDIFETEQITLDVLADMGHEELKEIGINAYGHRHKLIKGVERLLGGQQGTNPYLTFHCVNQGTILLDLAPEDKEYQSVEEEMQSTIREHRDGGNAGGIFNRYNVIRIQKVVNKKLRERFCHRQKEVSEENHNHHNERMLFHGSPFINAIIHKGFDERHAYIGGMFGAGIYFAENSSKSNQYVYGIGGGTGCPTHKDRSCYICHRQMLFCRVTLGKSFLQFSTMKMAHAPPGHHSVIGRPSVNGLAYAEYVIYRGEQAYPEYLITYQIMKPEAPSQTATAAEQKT

[1] = tested on: HEK293 FOP control reporter cell line; assay: HEK293 FOP Assay (FOP control vector luciferase reporter); type: cell-based; conditions: Homo sapiens; HEK293 FOP control reporter cell line, 16 hours incubation, compound dilution series 50 μM to 15 nM
Procedure, shortened: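 Compound series 50 μM to 15 nM, 3.16-fold steps, were diluted in CAFTY buffer (pH 7.4, 2 mM Ca2+, 0.01% BSA) and tested alongside the TOP reporter line. Human Wnt-3a was added at 2500–5 ng/ml in two-fold steps. The control HEK293 line stably holds an FOP vector whose TCF elements are randomized and non-functional.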

SMILES | IC50 (TNKS1) [µM] | IC50 [1] [µM]
CCNC(=O)c1nc[nH]c1C(=O)Nc1ccc(NC(=O)c2cc(OC)ccc2Cl)cc1 [Example 264, N^5-{4-[(2-chloro-5-methoxybenzoyl)amino]phenyl}-N^4-ethyl-1H-imidazole-4,5-dicarboxamide] | 0.09 | 16
C[C@@H]1CCCCN1CCNC(=O)c1[nH]cnc1C(=O)Nc1ccc(NC(=O)c2ccc(F)cc2Cl)cc1 [Example 267, N^4-{4-[(2-chloro-4-fluorobenzoyl)amino]phenyl}-N^5-{2-[(2R)-2-methylpiperidin-1-yl]ethyl}-1H-imidazole-4,5-dicarboxamide] | 0.007 | 20
C[C@@H]1CCCN(CCNC(=O)c2[nH]cnc2C(=O)Nc2ccc(NC(=O)c3ccc(F)cc3Cl)cc2)C1 [Example 278, N^4-{4-[(2-chloro-4-fluorobenzoyl)amino]phenyl}-N^5-{2-[(3R)-3-methylpiperidin-1-yl]ethyl}-1H-imidazole-4,5-dicarboxamide] | 0.005 | 25
O=C(Nc1ccc(NC(=O)c2nc[nH]c2C(=O)NCCN2CCC(F)(F)C2)cc1)c1ccc(F)cc1Cl [Example 279, N^4-{4-[(2-chloro-4-fluorobenzoyl)amino]phenyl}-N^5-[2-(3,3-difluoropyrrolidin-1-yl)ethyl]-1H-imidazole-4,5-dicarboxamide] | 0.02 | 12
CN1CCCC(CNC(=O)c2[nH]cnc2C(=O)Nc2ccc(NC(=O)c3ccc(F)cc3Cl)cc2)C1 (centres unmarked) [Example 298, N^4-{4-[(2-chloro-4-fluorobenzoyl)amino]phenyl}-N^5-[(1-methylpiperidin-3-yl)methyl]-1H-imidazole-4,5-dicarboxamide] | 0.04 | 17
O=C(Nc1ccc(NC(=O)c2ocnc2C(=O)NCCN2CCCCC2)cc1)c1ccc(F)cc1Cl [Example 303, N^5-{4-[(2-chloro-4-fluorobenzoyl)amino]phenyl}-N^4-[2-(piperidin-1-yl)ethyl]-1,3-oxazole-4,5-dicarboxamide] | 0.008 | 8.1
CNC(=O)c1nc[nH]c1C(=O)Nc1ccc(NC(=O)c2cc(Cl)ccc2Cl)cc1 [Example 309, N^5-{4-[(2,5-dichlorobenzoyl)amino]phenyl}-N^4-methyl-1H-imidazole-4,5-dicarboxamide] | 0.41 | 38
CNC(=O)c1nc[nH]c1C(=O)Nc1ccc(NC(=O)c2cc(Br)ccc2Cl)cc1 [Example 313, N^5-{4-[(5-bromo-2-chlorobenzoyl)amino]phenyl}-N^4-methyl-1H-imidazole-4,5-dicarboxamide] | 0.42 | 25
CNC(=O)c1nc[nH]c1C(=O)Nc1ccc(NC(=O)c2ccc(Cl)cc2F)cc1 [Example 333, N^5-{4-[(4-chloro-2-fluorobenzoyl)amino]phenyl}-N^4-methyl-1H-imidazole-4,5-dicarboxamide] | 0.96 | 40
CC(C)N(CCNC(=O)c1nc[nH]c1C(=O)Nc1ccc(NC(=O)c2ccc(F)cc2Cl)cc1)C(C)C [Example 389, N^5-{4-[(2-chloro-4-fluorobenzoyl)amino]phenyl}-N^4-{2-[di(propan-2-yl)amino]ethyl}-1H-imidazole-4,5-dicarboxamide] | 0.15 | 11
CC1(C)CC(NC(=O)c2nc[nH]c2C(=O)Nc2ccc(NC(=O)c3ccc(F)cc3Cl)cc2)CCO1 (centres unmarked) [Example 391, N^5-{4-[(2-chloro-4-fluorobenzoyl)amino]phenyl}-N^4-(2,2-dimethyltetrahydro-2H-pyran-4-yl)-1H-imidazole-4,5-dicarboxamide] | 0.4 | 27
CCN1CCC[C@@H]1CNC(=O)c1nc[nH]c1C(=O)Nc1ccc(NC(=O)c2ccc(F)cc2Cl)cc1 [Example 413, N^5-{4-[(2-chloro-4-fluorobenzoyl)amino]phenyl}-N^4-{[(2R)-1-ethylpyrrolidin-2-yl]methyl}-1H-imidazole-4,5-dicarboxamide] | 0.08 | 26
CN1CCN(CC(C)(C)CNC(=O)c2nc[nH]c2C(=O)Nc2ccc(NC(=O)c3ccc(F)cc3Cl)cc2)CC1 [Example 415, N^5-{4-[(2-chloro-4-fluorobenzoyl)amino]phenyl}-N^4-[2,2-dimethyl-3-(4-methylpiperazin-1-yl)propyl]-1H-imidazole-4,5-dicarboxamide] | 0.07 | 7.8
